Results taken from PubChem BioAssay AID588663 (The Scripps Research Institute Molecular Screening Center, 2011).
Calls of active or inactive are those of the source.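 How the source made its calls: active means phosphorylated p38 level shifted at least 30% either way versus solvent-only control; inactive means shift under 30% either way.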

System: SW620 cells, phospho-p38 western blot, 24 h
Test: phospho-p38 level change, either direction, late-stage follow-up, counter-screen for KLF5 inhibitor project, SW620 cells, chemiluminescent western blot, powder samples (AID 588663)
Settings: at 10 µM; active compounds read high

| Compound | inhibition |
| --- | --- |
| CN(C(=O)COC(=O)/C=C/c1cccc([N+](=O)[O-])c1)C1CCS(=O)(=O)C1 (stereo not drawn) | 9.32% (inactive) |
| CN(C(=O)CNC(=O)/C=C/c1cccc(Cl)c1)C1CCS(=O)(=O)CC1 | 6.58% (inactive) |
| CN(C(=O)CNC(=O)/C=C/c1cccc(Cl)c1)C1CCS(=O)(=O)C1 (stereo not drawn) | 15.9% (inactive) |
